# Test results taken from US8334315B2, “Substituted aromatic carboxamide and urea derivatives as vanilloid receptor ligands” (Gruenenthal GmbH, priority 2009, dated 2012).
# How the values were obtained:
# hVR1 [1] = target: T1, hVR1 (Homo sapiens, UniProt Q8NER1); test: Functional test on hVR1 after pH stimulus; assay type: cell-based, human being; set-up: key to IC50 (human being) hVR1, pH: agonist / partial agonist / no effect: AG=agonist; pAG=partial agonist; NE=no effect; settings: for inhibition at 10 µM: read-out: IC50 (human being) hVR1, pH: inhibition (as a percentage)
# T1 construct: expressed in transfected cells; host or cells: CHO K1 cells (ECACC), stably transfected
# NMRI mice = test: Neuropathic pain in mice, Bennett model (chronic constriction injury, cold allodynia) (CClm); assay type: in vivo
# Protocol: VI. Neuropathic Pain in Mice
# Efficacy in […] pain was tested using the Bennett model (chronic constriction injury; Bennett and Xie, 1988, Pain 33: 87-107).
# Three loose ligatures are tied around the right ischiadic nerve of Ketavet/Rompun-anaesthetised NMRI mice weighing 16-18 g. The animals develop hypersensitivity of the innervated paw caused by the damaged nerve, which hypersensitivity is quantified, following a recovery phase of one week, over a period of approximately three weeks by means of a cold metal plate (temperature 4° C.) (cold allodynia). The animals are observed on this plate over a period of 2 min and the withdrawal reactions of the damaged paw are counted. Based on the pre-value prior to the application of the substance, the substance's effect over a certain period of time is determined at various points in time (for example 15, 30, 45, or 60 min following application) and the resultant area under the curve (AUC) and/or the inhibition of cold allodynia at the individual measuring points is/are expressed as a percentage effect relative to the vehicle control (AUC) or to the starting value (individual measuring points). The group size is n=10, the significance of an antiallodynic effect (*=p<0.05) is determined with the aid of an analysis of variance with repeated measures and Bonferroni post hoc analysis.
# CClm=Bennet model in mice
# hVR1 [2] = target: T1, hVR1; test: Functional test on human VR1, 45° C. stimulus; assay type: cell-based, human being; set-up: key to IC50 (human being), 45° C.: agonist / partial agonist / no effect: AG=agonist; pAG=partial agonist; NE=no effect
# hVR1 [3] = target: T1, hVR1; test: Functional test on human VR1, NADA (N-arachidonoyl dopamine) stimulus; assay type: cell-based, human being; set-up: key to Ki (human being) NADA: agonist / partial agonist / no effect: AG=agonist; pAG=partial agonist; NE=no effect; settings: for Ki: includes values given in brackets after pAG, read-out: Ki (human being) [nM] NADA
# T1 sequence (Q8NER1 whole entry): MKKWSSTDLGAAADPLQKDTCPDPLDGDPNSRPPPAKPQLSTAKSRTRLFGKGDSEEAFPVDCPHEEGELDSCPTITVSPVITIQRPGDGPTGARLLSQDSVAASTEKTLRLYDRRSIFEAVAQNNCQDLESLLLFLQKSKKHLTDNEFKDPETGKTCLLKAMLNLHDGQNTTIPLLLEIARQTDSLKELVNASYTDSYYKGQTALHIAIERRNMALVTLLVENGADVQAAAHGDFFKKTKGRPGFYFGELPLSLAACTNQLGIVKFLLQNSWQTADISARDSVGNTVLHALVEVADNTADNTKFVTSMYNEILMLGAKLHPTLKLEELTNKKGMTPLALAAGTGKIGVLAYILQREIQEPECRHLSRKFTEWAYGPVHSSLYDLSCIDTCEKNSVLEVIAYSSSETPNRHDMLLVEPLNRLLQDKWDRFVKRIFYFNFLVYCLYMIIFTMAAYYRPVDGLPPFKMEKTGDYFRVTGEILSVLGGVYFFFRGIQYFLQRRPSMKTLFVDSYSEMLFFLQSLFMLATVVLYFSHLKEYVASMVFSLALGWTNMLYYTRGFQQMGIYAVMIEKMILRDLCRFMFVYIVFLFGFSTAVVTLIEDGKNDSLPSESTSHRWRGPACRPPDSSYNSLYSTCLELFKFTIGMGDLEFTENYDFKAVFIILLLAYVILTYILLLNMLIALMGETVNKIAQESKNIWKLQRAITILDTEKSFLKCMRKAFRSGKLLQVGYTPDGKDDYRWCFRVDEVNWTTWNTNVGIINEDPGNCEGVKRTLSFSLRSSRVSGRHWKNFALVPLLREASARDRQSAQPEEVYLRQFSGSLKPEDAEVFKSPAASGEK
"IC50 (human being) hVR1, pH: agonist / partial agonist / no effect (hVR1 [1])","IC50 (human being), 45° C.: agonist / partial agonist / no effect (hVR1 [2])","IC50 (hVR1 [2]; read-out: IC50 (human being) [nM], 45° C.) [nM]",Ki (hVR1 [3]) [nM],Ki (human being) NADA: agonist / partial agonist / no effect (hVR1 [3]),inhibition at 10 µM (hVR1 [1]) [%],SMILES,"CClm (Bennett model, percentage effect on cold allodynia) (NMRI mice; 0.1 iv)","CClm (Bennett model, percentage effect on cold allodynia) (NMRI mice; 1 iv)","CClm (Bennett model, percentage effect on cold allodynia) (NMRI mice; 1 po)"
pAG,pAG,,,,,"CC(C(=O)NCc1cc(C(F)(F)F)nn1-c1cccc(Cl)c1)c1ccc2cc(O)ccc2c1 (centres unmarked) [Example 50, N-((1-(3-chlorophenyl)-3-(trifluoromethyl)-1H-pyrazol-5-yl)methyl)-2-(6-hydroxynaphthalen-2-yl)propanamide]",CClm 83%,,
,,357,0.02,,,"CC(C(=O)NCc1cc(C(F)(F)F)nn1-c1cccc(Cl)c1)c1cccc2cnccc12 (centres unmarked) [Example 64, N-((1-(3-chlorophenyl)-3-(trifluoromethyl)-1H-pyrazol-5-yl)methyl)-2-(isoquinolin-5-yl)propanamide]",,CClm 62%,
,,,11.8,pAG,,"Cc1nc2ccc(C(C)C(=O)NCc3cc(C(F)(F)F)nn3-c3cccc(Cl)c3)cc2s1 (centres unmarked) [Example 45, N-((1-(3-chlorophenyl)-3-(trifluoromethyl)-1H-pyrazol-5-yl)methyl)-2-(2-methylbenzo[d]thiazol-6-yl)propanamide]",,,
,,,12.6,,21,"CC(C)(C)c1cc(CNC(=O)Nc2ccc3c(c2)CCC3)n(-c2cccc(Cl)c2)n1 [Example 79, 1-((3-tert-butyl-1-(3-chlorophenyl)-1H-pyrazol-5-yl)methyl)-3-(2,3-dihydro-1H-inden-5-yl)urea]",,,CClm 70%
,pAG,,4.3,pAG,49,"CC(C(=O)NCc1cc(C(C)(C)C)nn1-c1cccc(Cl)c1)c1ccc2c(c1)OCCO2 (centres unmarked) [Example 13, N-((3-tert-butyl-1-(3-chlorophenyl)-1H-pyrazol-5-yl)methyl)-2-(2,3-dihydrobenzo[b][1,4]dioxin-6-yl)propanamide]",CClm 85%,,
,pAG,,,pAG,36,"CC(C(=O)NCc1cc(C(C)(C)C)nn1-c1cccc(Cl)c1)c1ccc2c(c1)OCO2 (centres unmarked) [Example 11, 2-(benzo[d][1,3]dioxol-5-yl)-N-((3-tert-butyl-1-(3-chlorophenyl)-1H-pyrazol-5-yl)methyl)propanamide]",CClm 77%,,
